Data on 19 molecules can be found in BindingDB's records for doi:10.1016/j.bmcl.2006.10.074 (Abbott Laboratories, 2007).

The target in experiment [1] is 11-beta-hydroxysteroid dehydrogenase 1 (Mus musculus, UniProt P50172). Kind of experiment: Human and Mouse 11beta-HSD1 SPA Assay. The procedure:
(§1) Enzyme assays were performed using purified recombinant human or mouse11beta-HSD1. The fractional conversion of cortisone to cortisol was used to determine enzyme activities. The radioactive cortisol generated in the assay was captured by a monoclonal anti-cortisol antibody and SPA beads coated with anti-mouse antibodies.

The target of experiment [2] is 11-beta-hydroxysteroid dehydrogenase 1 (Homo sapiens, UniProt P28845). As to the kind of experiment: Human and Mouse 11beta-HSD1 SPA Assay. The conditions noted are these: pH 7.2; 22 °C. The procedure:
as §1

11-beta-hydroxysteroid dehydrogenase 1 (Mus musculus, UniProt P50172), sequence (P50172 whole entry): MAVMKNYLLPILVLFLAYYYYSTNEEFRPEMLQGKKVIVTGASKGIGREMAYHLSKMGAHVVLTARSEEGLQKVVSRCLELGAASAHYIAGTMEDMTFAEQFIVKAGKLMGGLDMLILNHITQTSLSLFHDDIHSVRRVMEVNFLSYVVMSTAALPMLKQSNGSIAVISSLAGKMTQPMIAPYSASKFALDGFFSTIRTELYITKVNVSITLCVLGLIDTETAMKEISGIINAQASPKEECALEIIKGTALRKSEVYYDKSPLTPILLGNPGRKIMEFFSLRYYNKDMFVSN
11-beta-hydroxysteroid dehydrogenase 1 (Homo sapiens, UniProt P28845), sequence (P28845 whole entry): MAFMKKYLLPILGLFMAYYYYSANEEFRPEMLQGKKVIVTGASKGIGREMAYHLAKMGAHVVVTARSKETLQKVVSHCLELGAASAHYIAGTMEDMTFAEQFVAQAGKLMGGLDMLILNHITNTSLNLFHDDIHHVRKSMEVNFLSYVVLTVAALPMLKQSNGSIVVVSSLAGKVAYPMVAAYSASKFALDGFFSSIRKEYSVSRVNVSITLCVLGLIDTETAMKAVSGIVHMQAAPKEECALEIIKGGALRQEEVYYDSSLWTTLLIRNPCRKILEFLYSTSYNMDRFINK

Usually IC50 stands for the point on the concentration scale where inhibition reaches its midpoint. Lower therefore signals greater potency. With `CC(C)(Oc1ccc(F)cc1Cl)C(=O)N[C@H]1C2C[C@@H]3C[C@@H]1C[C@@](c1nnn[nH]1)(C2)C3` [2-(2-chloro-4-fluorophenoxy)-2-methyl-N-[(1R,2S,5R,7S)-5-(1H-1,2,3,4-tetrazol-5-yl)adamantan-2-yl]propanamide], the half-inhibitory concentration (IC50) in experiment [1] was determined as 10 nM. This counts as double-digit nanomolar. Still for that read-out and setting: under `CNC(=O)NC(=O)[C@@]12CC3C[C@H](C[C@H](C1)[C@H]3NC(=O)C(C)(C)Oc1ccc(Cl)cc1)C2` [2-(4-chlorophenoxy)-2-methyl-N-[(1R,2S,5R,7S)-5-{[(methylcarbamoyl)amino]carbonyl}adamantan-2-yl]propanamide] stands 8 nM.

With `CC(C)(Oc1ccc(Cl)cc1)C(=O)N[C@H]1C2C[C@@H]3C[C@@H]1C[C@@](CO)(C2)C3` [2-(4-chlorophenoxy)-N-[(1R,2S,5R,7S)-5-(hydroxymethyl)adamantan-2-yl]-2-methylpropanamide], the half-inhibitory concentration (IC50) in experiment [1] is 6 nM.

For `CC(C)(Oc1ccc(Cl)cc1)C(=O)N[C@H]1C2C[C@@H]3C[C@@H]1C[C@@](COCC(=O)O)(C2)C3` [2-{[(1R,3R,4S,7S)-4-[2-(4-chlorophenoxy)-2-methylpropanamido]adamantan-1-yl]methoxy}acetic acid], the figures for the half-inhibitory concentration (IC50) in experiment [1] and in experiment [2] were 210 nM and 110 nM, respectively. Take `CC(C)(Oc1ccc(Cl)cc1)C(=O)N[C@H]1C2C[C@@H]3C[C@@H]1C[C@@](C(=O)NCc1ccc(C(=O)O)cc1)(C2)C3` [4-({[(1R,3R,4S,7S)-4-[2-(4-chlorophenoxy)-2-methylpropanamido]adamantan-1-yl]formamido}methyl)benzoic acid]: the IC50 in experiment [1] amounted to 12 nM. On to `CC(C)(Oc1ccccc1)C(=O)N[C@H]1C2C[C@@H]3C[C@@H]1C[C@@](C(N)=O)(C2)C3` [(1R,3R,4S,7S)-4-(2-methyl-2-phenoxypropanamido)adamantane-1-carboxamide], for which 4 nM corresponded to half-maximal inhibition in experiment [1] (IC50). The same measure, in the same setting: then `CC(C)(Oc1ccccc1)C(=O)N[C@H]1C2C[C@@H]3C[C@@H]1C[C@@](C(=O)O)(C2)C3` [(1R,3R,4S,7S)-4-(2-methyl-2-phenoxypropanamido)adamantane-1-carboxylic acid], with 119 nM. For the molecule `CC(C)(Oc1ccccc1Cl)C(=O)N[C@H]1C2C[C@@H]3C[C@@H]1C[C@@](C(=O)NS(C)(=O)=O)(C2)C3` [(1R,3R,4S,7S)-4-[2-(2-chlorophenoxy)-2-methylpropanamido]-N-methanesulfonyladamantane-1-carboxamide], the half-maximal inhibitory concentration (IC50) in experiment [1] was determined as 28 nM; in experiment [2] it was 96 nM. The like results for `CC(C)(Oc1ccccc1Cl)C(=O)N[C@H]1C2C[C@@H]3C[C@@H]1C[C@@](C(=O)O)(C2)C3` [(1R,3R,4S,7S)-4-[2-(2-chlorophenoxy)-2-methylpropanamido]adamantane-1-carboxylic acid] were, in that order, 8 nM and 8 nM. Taken in the same sequence, the figures for `CC(C)(Oc1cccc(Cl)c1)C(=O)N[C@H]1C2C[C@@H]3C[C@@H]1C[C@@](C(=O)O)(C2)C3` [(1R,3R,4S,7S)-4-[2-(3-chlorophenoxy)-2-methylpropanamido]adamantane-1-carboxylic acid] were 51 nM and 15 nM. With `CC(C)(Oc1ccc(Cl)cc1)C(=O)N[C@H]1C2C[C@@H]3C[C@@H]1C[C@@](C(=O)NCc1cncs1)(C2)C3` [(1R,3R,4S,7S)-4-[2-(4-chlorophenoxy)-2-methylpropanamido]-N-(1,3-thiazol-5-ylmethyl)adamantane-1-carboxamide], half-maximal inhibition in experiment [1] (IC50) required 11 nM. Consider `CC(C)(Oc1ccc(Cl)cc1)C(=O)N[C@H]1C2C[C@@H]3C[C@@H]1C[C@@](C(=O)NCc1ccncc1)(C2)C3` [(1R,3R,4S,7S)-4-[2-(4-chlorophenoxy)-2-methylpropanamido]-N-(pyridin-4-ylmethyl)adamantane-1-carboxamide], for which the IC50 in experiment [1] was determined as 14 nM; in experiment [2], 25 nM. The like results for `CC(C)(Oc1ccc(Cl)cc1)C(=O)N[C@H]1C2C[C@@H]3C[C@@H]1C[C@@](C(=O)NCc1ccc(S(N)(=O)=O)cc1)(C2)C3` [(1R,3R,4S,7S)-4-[2-(4-chlorophenoxy)-2-methylpropanamido]-N-[(4-sulfamoylphenyl)methyl]adamantane-1-carboxamide] were, in that order, 24 nM and 51 nM.

In the case of `CC(C)(Oc1ccc(Cl)cc1)C(=O)N[C@H]1C2C[C@@H]3C[C@@H]1C[C@@](C(=O)NCc1ccc(-c4nnn[nH]4)cc1)(C2)C3` [(1R,3R,4S,7S)-4-[2-(4-chlorophenoxy)-2-methylpropanamido]-N-{[4-(1H-1,2,3,4-tetrazol-5-yl)phenyl]methyl}adamantane-1-carboxamide], half-maximal inhibition in experiment [1] (IC50) was put at 18 nM. Same read-out and setting: then `CC(C)(Oc1ccc(Cl)cc1)C(=O)N[C@H]1C2C[C@@H]3C[C@@H]1C[C@@](C(N)=O)(C2)C3` [(1R,3R,4S,7S)-4-[2-(4-chlorophenoxy)-2-methylpropanamido]adamantane-1-carboxamide], with 3 nM. Same read-out and setting: then `CC(C)(Oc1ccc(Cl)cc1)C(=O)N[C@H]1C2C[C@@H]3C[C@@H]1C[C@@](C(=O)O)(C2)C3` [(1R,3R,4S,7S)-4-[2-(4-chlorophenoxy)-2-methylpropanamido]adamantane-1-carboxylic acid], with 70 nM; and `COc1ccc(OC(C)(C)C(=O)N[C@H]2C3C[C@@H]4C[C@@H]2C[C@@](C(N)=O)(C3)C4)cc1` [(1R,3R,4S,7S)-4-[2-(4-methoxyphenoxy)-2-methylpropanamido]adamantane-1-carboxamide], with 4 nM.

With `CC(C)(Oc1ccccc1Cl)C(=O)N[C@H]1C2C[C@@H]3C[C@@H]1C[C@@](C(=O)NS(=O)(=O)c1ccccc1)(C2)C3` [(1R,3R,4S,7S)-N-(benzenesulfonyl)-4-[2-(2-chlorophenoxy)-2-methylpropanamido]adamantane-1-carboxamide], the results for the IC50 in experiment [1] and in experiment [2] were 1000 nM and 500 nM, respectively. Consider `CC(C)(Oc1ccc(Cl)cc1)C(=O)N[C@H]1C2C[C@@H]3C[C@@H]1C[C@@](C(=O)NCC(N)=O)(C2)C3` [N-[(1R,2S,5R,7S)-5-[(carbamoylmethyl)carbamoyl]adamantan-2-yl]-2-(4-chlorophenoxy)-2-methylpropanamide], for which, in experiment [1], the IC50 was 4 nM. This counts as single-digit nanomolar.
